This note sets out measurements from patent publication US20210235704A9, “Combinations of Lipo-Chitooligosaccharides and Methods for Use in Enhancing Plant Growth” (NOVOZYMES BIOAG A/S, priority 2011, published 2021).

The subject of this assay is Florida petite cherry tomato plants. The experiment in a line: LCO foliar application on cherry tomato (greenhouse). The format is in vivo. Particulars: at the end of harvest, compared to control treatment; FIG. 11. The method, then:
Based on the findings from the soybean LCO and the alfalfa LCO combination in Siratro (example 1), further investigation was conducted on tomato. Florida petite cherry tomato plants were grown from seeds in greenhouse plastic containers and sprayed with soy LCO or its combination with alfalfa LCO during the initiation of flower buds at 5 ml/plant application rate. A second spry was also applied one week after the first application. At different maturity, leaf greenness, flower number, fruit number and final fruit fresh weight were measured.

For the substance LCO-V(C18:1, MeFuc), MOR116 [soy LCO], the “average fruit number per plant” value is reported as “significantly higher”.
